Measured values taken from patent US20220265629A1, “TREATMENT OF SYSTOLIC DYSFUNCTION AND HEART FAILURE WITH REDUCED EJECTION FRACTION WITH THE COMPOUND (R)-4-(1-((3-(DIFLUOROMETHYL)-1-METHYL-1H-PYRAZOL-4-YL)SULFONYL)-1-FLUOROETHYL)-N-(ISOXAZOL-3-YL)PIPERIDINE-1-CARBOXAMIDE” (MyoKardia, Inc., priority 2019, published 2022).
Like-named read-outs stand apart in the source and are kept apart here.

Experiment: Single ascending oral dose study in healthy volunteers: plasma pharmacokinetics
Type: in vivo, human
Conditions: human, plasma, oral; for concentration at 6 h: 6 Hours Postdose; for concentration at 12 h: 12 Hours Postdose; for concentration at 24 h: 24 Hours Postdose; for concentration at 48 h: 48 Hours Postdose; for concentration at 72 h: 72 Hours Postdose
From the text: This example describes the first-in-human study of Compound I. Based on its mechanism of action, Compound I may offer a targeted therapy for patients with DCM caused by genetic or nongenetic mechanisms. The study was a randomized, double-blind, placebo-controlled, sequential group, single-ascending (oral) close study in healthy subjects aged 18-55 years. Eight dosing cohorts, each comprising eight healthy subjects, were enrolled. Within each cohort, subjects were randomized 6:2 to Compound I:placebo.
Subjects were resident at the clinical site for up to 5 days and 4 nights, from Day −1 (the day before dosing) to Day 4, and received a single dose of Compound I or placebo on Day 1. ECG telemetry was initiated 1 hour preclose and continued through 48 hours postclose (Day 3). Any subject with a preclose resting HR≥80 beats per minute was considered ineligible and not treated. […] Subjects returned for a safety follow-up visit 7 days (±1 day) after dosing.
All randomized study subjects received either Compound I or matching placebo as a single oral dose after a fasting period of at least 6 hours. Compound I drug substance is a crystalline, free-base, synthetic molecule with a molecular weight of 435.4 g/mol.
Compound I was provided as a powder for oral suspension. Placebo was provided as calcium carbonate powder. Both treatments were closed orally as a suspension. The suspension was made using Ora-Plus® suspending vehicle (Perrigo) and a cherry syrup flavoring vehicle (Humco), mixed 50% to 50%. The suspension was followed by approximately 100 mL water. The suspension was made up within 14 days from the time in which it was closed which was consistent with the stability data on the suspension. The suspension was made up so the volume administered to the subjects who received Compound I was the same at 20 mL.
Each subject received a close according to the cohort in which they were enrolled. Cohorts were enrolled sequentially, with each cohort receiving an escalated dose of Compound I. The closes administered were 3 mg, 10 mg, 25 mg, 50 mg, 100 mg, 175 mg, 350 mg, and 525 mg, respectively.
The concentrations of Compound I in human plasma and urine were quantitated by high performance liquid chromatography with tandem mass spectrometric detection (LC MS/MS) (Biological sample analysis study report Alturas AD17-726). Plasma samples were extracted by protein precipitation with acetonitrile containing internal standard MYK-5654. The calibration curves were linear over concentration range of 0.500 to 1000 ng/mL with a lower limit of quantification (LLOQ) of 0.500 ng/mL.
The PK Population included all subjects who received Compound I. Blood samples were collected for PK assessments. The actual timing of the samples may have been modified and/or up to an additional 2 samples may have been requested by the SRC after review of the data from previous cohorts. It was important that PK sampling occurred as closely as possible to the scheduled time (±10%). Both blood and urine samples were used for PK assessments.
In addition, for subjects who received placebo, a single plasma sample near the predicted tmax of Compound I was evaluated to confirm the lack of circulating Compound I. Plasma concentration data for Compound I was summarized using descriptive statistics, including mean, standard deviation (SD), median, minimum, and maximum values, and percent coefficient of variation. Other PK parameters included (but were not limited to) Cmax, tmax, AUC, t1/2, and MRT. Additionally, the apparent terminal-phase terminal half-life was calculated. The close proportionality of AUC and Cmax was explored.

[1] = 100 mg, 100 mg, read-out: Plasma concentration, Geometric Mean
[2] = 100 mg, 100 mg, read-out: Plasma concentration, Mean
[3] = 100 mg, 100 mg, read-out: Plasma concentration, Median
[4] = 175 mg, 175 mg, read-out: Plasma concentration, Geometric Mean
[5] = 175 mg, 175 mg, read-out: Plasma concentration, Mean
[6] = 175 mg, 175 mg, read-out: Plasma concentration, Median

Cn1cc(S(=O)(=O)[C@@](C)(F)C2CCN(C(=O)Nc3ccon3)CC2)c(C(F)F)n1 [Compound I, (R)-4-(1-((3-(difluoromethyl)-1-methyl-1H-pyrazol-4-yl)sulfonyl)-1-fluoroethyl)-N-(isoxazol-3-yl)piperidine-1-carboxamide]
Vd/F (50 mg, read-out: Vz/F, Mean): 87.9 L | Vd/F (50 mg, read-out: Vz/F, Median): 90.6 L | concentration at 6 h [1]: 934 ng/mL | concentration at 6 h [2]: 947 ng/mL | concentration at 6 h [3]: 935 ng/mL | concentration at 12 h [1]: 661 ng/mL | concentration at 12 h [2]: 674 ng/mL | concentration at 12 h [3]: 637 ng/mL | concentration at 24 h [1]: 374 ng/mL | concentration at 24 h [2]: 384 ng/mL | concentration at 24 h [3]: 372 ng/mL | concentration at 48 h [1]: 71 ng/mL | concentration at 48 h [2]: 91.1 ng/mL | concentration at 48 h [3]: 104 ng/mL | concentration at 72 h [2]: 23.2 ng/mL | concentration at 72 h [3]: 24.2 ng/mL | AUC(0-t) (100 mg, read-out: AUC0-24, Geometric Mean): 15200 ng·h/mL | AUC(0-t) (100 mg, read-out: AUC0-24, Mean): 15400 ng·h/mL | AUC(0-t) (100 mg, read-out: AUC0-24, Median): 14900 ng·h/mL | AUC(0-t) (100 mg, read-out: AUC0-48, Geometric Mean): 21100 ng·h/mL | AUC(0-t) (100 mg, read-out: AUC0-48, Mean): 21400 ng·h/mL | AUC(0-t) (100 mg, read-out: AUC0-48, Median): 21600 ng·h/mL | AUC(0-t) (100 mg, read-out: AUC0-last, Geometric Mean): 21700 ng·h/mL | AUC(0-t) (100 mg, read-out: AUC0-last, Mean): 22700 ng·h/mL | AUC(0-t) (100 mg, read-out: AUC0-last, Median): 22400 ng·h/mL | AUC(0-inf) (100 mg, read-out: AUC0-∞, Geometric Mean): 21300 ng·h/mL | AUC(0-inf) (100 mg, read-out: AUC0-∞, Mean): 21700 ng·h/mL | AUC(0-inf) (100 mg, read-out: AUC0-∞, Median): 18700 ng·h/mL | Cmax (100 mg, read-out: Cmax, Geometric Mean): 1000 ng/mL | Cmax (100 mg, read-out: Cmax, Mean): 1020 ng/mL | Cmax (100 mg, read-out: Cmax, Median): 983 ng/mL | half-life (100 mg, read-out: Half-Life Lambda Z, Geometric Mean (converted)): 665 min | half-life (100 mg, read-out: Half-Life Lambda Z, Mean (converted)): 700 min | half-life (100 mg, read-out: Half-Life Lambda Z, Median (converted)): 752 min | MRT (100 mg, read-out: Mean Residence Time, Geometric Mean): 19.1 h | MRT (100 mg, read-out: Mean Residence Time, Mean): 19.5 h | MRT (100 mg, read-out: Mean Residence Time, Median): 20.4 h | Tmax (100 mg, read-out: Tmax, Geometric Mean): 4.42 h | Tmax (100 mg, read-out: Tmax, Mean): 4.5 h | Tmax (100 mg, read-out: Tmax, Median): 5 h | Vd/F (100 mg, read-out: Vz/F, Geometric Mean): 74.9 L | Vd/F (100 mg, read-out: Vz/F, Mean): 77.9 L | Vd/F (100 mg, read-out: Vz/F, Median): 82.1 L | concentration at 6 h [4]: 1260 ng/mL | concentration at 6 h [5]: 1270 ng/mL | concentration at 6 h [6]: 1250 ng/mL | concentration at 12 h [4]: 1040 ng/mL | concentration at 12 h [5]: 1050 ng/mL | concentration at 12 h [6]: 1040 ng/mL | concentration at 24 h [4]: 650 ng/mL | concentration at 24 h [5]: 664 ng/mL | concentration at 24 h [6]: 690 ng/mL | concentration at 48 h [4]: 203 ng/mL | concentration at 48 h [5]: 212 ng/mL | concentration at 48 h [6]: 224 ng/mL | concentration at 72 h [4]: 64 ng/mL | concentration at 72 h [5]: 71.3 ng/mL | concentration at 72 h [6]: 73.2 ng/mL | AUC(0-t) (175 mg, read-out: AUC0-24, Geometric Mean): 22000 ng·h/mL | AUC(0-t) (175 mg, read-out: AUC0-24, Mean): 22300 ng·h/mL | AUC(0-t) (175 mg, read-out: AUC0-24, Median): 21700 ng·h/mL | AUC(0-t) (175 mg, read-out: AUC0-48, Geometric Mean): 32300 ng·h/mL | AUC(0-t) (175 mg, read-out: AUC0-48, Mean): 32800 ng·h/mL | AUC(0-t) (175 mg, read-out: AUC0-48, Median): 32700 ng·h/mL | AUC(0-t) (175 mg, read-out: AUC0-last, Geometric Mean): 38200 ng·h/mL | AUC(0-t) (175 mg, read-out: AUC0-last, Mean): 39000 ng·h/mL | AUC(0-t) (175 mg, read-out: AUC0-last, Median): 39600 ng·h/mL | AUC(0-inf) (175 mg, read-out: AUC0-∞, Geometric Mean): 38300 ng·h/mL | AUC(0-inf) (175 mg, read-out: AUC0-∞, Mean): 39100 ng·h/mL | AUC(0-inf) (175 mg, read-out: AUC0-∞, Median): 39700 ng·h/mL | Cmax (175 mg, read-out: Cmax, Geometric Mean): 1300 ng/mL | Cmax (175 mg, read-out: Cmax, Mean): 1320 ng/mL | Cmax (175 mg, read-out: Cmax, Median): 1300 ng/mL | half-life (175 mg, read-out: Half-Life Lambda Z, Geometric Mean (converted)): 945 min | half-life (175 mg, read-out: Half-Life Lambda Z, Mean (converted)): 950 min | half-life (175 mg, read-out: Half-Life Lambda Z, Median (converted)): 982 min | MRT (175 mg, read-out: Mean Residence Time, Geometric Mean): 24.4 h | MRT (175 mg, read-out: Mean Residence Time, Mean): 24.6 h | MRT (175 mg, read-out: Mean Residence Time, Median): 24.4 h | Tmax (175 mg, read-out: Tmax, Geometric Mean): 5.07 h | Tmax (175 mg, read-out: Tmax, Mean): 5.11 h | Tmax (175 mg, read-out: Tmax, Median): 5 h | Vd/F (175 mg, read-out: Vz/F, Geometric Mean): 104 L | Vd/F (175 mg, read-out: Vz/F, Mean): 106 L | Vd/F (175 mg, read-out: Vz/F, Median): 101 L | AUC(0-t) (350 mg + 525 mg, read-out: AUC0-24, Geometric Mean): 40900 ng·h/mL | AUC(0-t) (350 mg + 525 mg, read-out: AUC0-24, Mean): 42100 ng·h/mL | AUC(0-t) (350 mg + 525 mg, read-out: AUC0-24, Median): 38500 ng·h/mL | AUC(0-t) (350 mg + 525 mg, read-out: AUC0-48, Geometric Mean): 60500 ng·h/mL | AUC(0-t) (350 mg + 525 mg, read-out: AUC0-48, Mean): 62400 ng·h/mL | AUC(0-t) (350 mg + 525 mg, read-out: AUC0-48, Median): 57400 ng·h/mL | AUC(0-t) (350 mg + 525 mg, read-out: AUC0-last, Geometric Mean): 70600 ng·h/mL | AUC(0-t) (350 mg + 525 mg, read-out: AUC0-last, Mean): 74000 ng·h/mL | AUC(0-t) (350 mg + 525 mg, read-out: AUC0-last, Median): 68600 ng·h/mL | AUC(0-inf) (350 mg + 525 mg, read-out: AUC0-∞, Geometric Mean): 71000 ng·h/mL | AUC(0-inf) (350 mg + 525 mg, read-out: AUC0-∞, Mean): 74400 ng·h/mL | AUC(0-inf) (350 mg + 525 mg, read-out: AUC0-∞, Median): 68800 ng·h/mL | Cmax (350 mg + 525 mg, read-out: Cmax, Geometric Mean): 2530 ng/mL | Cmax (350 mg + 525 mg, read-out: Cmax, Mean): 2580 ng/mL | Cmax (350 mg + 525 mg, read-out: Cmax, Median): 2500 ng/mL | half-life (350 mg + 525 mg, read-out: Half-Life Lambda Z, Geometric Mean (converted)): 871 min | half-life (350 mg + 525 mg, read-out: Half-Life Lambda Z, Mean (converted)): ~900 min | half-life (350 mg + 525 mg, read-out: Half-Life Lambda Z, Median (converted)): 872 min | MRT (350 mg + 525 mg, read-out: Mean Residence Time, Geometric Mean): 23.9 h | MRT (350 mg + 525 mg, read-out: Mean Residence Time, Mean): 24.3 h | MRT (350 mg + 525 mg, read-out: Mean Residence Time, Median): 23.5 h | Tmax (350 mg + 525 mg, read-out: Tmax, Geometric Mean): 4.89 h | Tmax (350 mg + 525 mg, read-out: Tmax, Mean): 5 h | Vd/F (350 mg + 525 mg, read-out: Vz/F, Geometric Mean): 126 L | Vd/F (350 mg + 525 mg, read-out: Vz/F, Mean): 132 L | Vd/F (350 mg + 525 mg, read-out: Vz/F, Median): 116 L | concentration at 6 h (350 mg, 350 mg, read-out: Plasma concentration, Geometric Mean): 2620 ng/mL
